Test system: interferon-alpha
Assay: Induction of interferon alpha in cynomolgus monkeys, multiple oral doses once per day (serum ELISA)
Format: in vivo
Experimental: Additionally, multiple doses of Compound A were administered to Cynomolgus monkeys, and the concentrations of interferon alpha were measured. Compound A was dosed orally once per day to Cynomolgus monkeys (3 animals per dose group), and serum was collected on Days 1, 7 and 15 at 4 and 8 hours after dosing. Serum samples were analyzed for levels of interferon-alpha by ELISA. Prior to dosing on Day 1, serum interferon-alpha levels were below the level of detection in each animal.

CCCCOc1nc(N)c2nc(O)n(Cc3cccc(CN4CCCC4)c3)c2n1 [Compound A, 6-amino-2-butoxy-9-(3-(pyrrolidin-1-ylmethyl)benzyl)-9H-purin-8-ol]
Average peak serum Interferon-alpha levels on designated day (oral 0.005 mg/kg once per day, Day 1): 3233 pg/mL
Average peak serum Interferon-alpha levels on designated day (oral 0.005 mg/kg once per day, Day 7): 6709 pg/mL
Average peak serum Interferon-alpha levels on designated day (oral 0.005 mg/kg once per day, Day 15): 24053 pg/mL
Average peak serum Interferon-alpha levels on designated day (oral 0.05 mg/kg once per day, Day 1): 87570 pg/mL
Average peak serum Interferon-alpha levels on designated day (oral 0.05 mg/kg once per day, Day 7): 12175 pg/mL
Average peak serum Interferon-alpha levels on designated day (oral 0.05 mg/kg once per day, Day 15): 42648 pg/mL
induction of serum interferon-alpha (oral once per day, 0.005 and 0.05 mg/kg, Days 1, 7, 15): Interferon-alpha was induced

Reference: patent US20110150836A1, “METHODS OF TREATING HBV AND HCV INFECTION” (Gilead Sciences, Inc., priority 2009, published 2011)
